Data reported in US12643886B2 (Ontario Institute for Cancer Research (OICR), priority 2021, dated 2026).

Legend:
Type in all cases: biochemical
NUAK2 (h) = target: T1, NUAK2 (h) (Homo sapiens, UniProt Q9H093); assay: NUAK2 enzymatic assay (radiometric, Eurofins); conditions: full-length recombinant enzyme
T1 construct: This assay was done radiometrically using full-length, recombinant enzyme; purchased Eurofins
T1 sequence (Q9H093 1-628): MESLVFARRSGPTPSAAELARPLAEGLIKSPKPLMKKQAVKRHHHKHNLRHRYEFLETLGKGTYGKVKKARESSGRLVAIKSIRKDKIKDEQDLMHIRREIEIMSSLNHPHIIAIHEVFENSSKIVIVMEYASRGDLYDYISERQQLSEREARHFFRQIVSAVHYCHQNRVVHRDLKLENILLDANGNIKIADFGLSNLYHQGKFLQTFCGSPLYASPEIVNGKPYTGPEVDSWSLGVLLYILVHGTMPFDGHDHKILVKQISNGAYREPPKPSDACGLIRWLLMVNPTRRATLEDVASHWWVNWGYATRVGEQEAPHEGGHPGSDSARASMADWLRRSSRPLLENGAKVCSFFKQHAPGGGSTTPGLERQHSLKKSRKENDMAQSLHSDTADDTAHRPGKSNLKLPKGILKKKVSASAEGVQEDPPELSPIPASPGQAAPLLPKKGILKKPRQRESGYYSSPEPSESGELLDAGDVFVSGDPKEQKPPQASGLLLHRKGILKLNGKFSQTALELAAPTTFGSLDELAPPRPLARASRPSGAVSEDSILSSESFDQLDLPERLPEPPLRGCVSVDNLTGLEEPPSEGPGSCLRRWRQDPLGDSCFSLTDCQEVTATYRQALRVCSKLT
Protocol: (§1) To identify small molecule NUAK inhibitors, a biochemical NUAK2 enzymatic assay were outsourced to Eurofins. This assay was done radiometrically using full-length, recombinant enzyme. NUAK2 (h) was incubated with 8 mM MOPS pH 7.0, 0.2 mM EDTA, 300 μM […], 10 mM magnesium acetate and […] (specific activity and concentration as required). The reaction was initiated by the addition of the Mg/ATP mix. After incubation for 40 minutes at room temperature, the reaction was stopped by the addition of phosphoric acid to a concentration of 0.5%. 10 μL of the reaction was then spotted onto a P30 filtermat and washed four times for 4 minutes in 0.425% phosphoric acid and once in methanol prior to drying and scintillation counting. Compounds were routinely counter-screened against Aurora A and NUAK1. The results are shown in Table 1 where IC50's are reported in the following ranges: A: 0.1-10 nM; B: 11-100 nM; C: 101-1000 nM; D: >1000 nM for the compounds of Formula (I)

Aurora A = target: T2, Aurora A (Homo sapiens, UniProt O14965); assay: Counter-screen against Aurora A; conditions: read-out: AUR-A (IC50)
T2 sequence (O14965 1-403): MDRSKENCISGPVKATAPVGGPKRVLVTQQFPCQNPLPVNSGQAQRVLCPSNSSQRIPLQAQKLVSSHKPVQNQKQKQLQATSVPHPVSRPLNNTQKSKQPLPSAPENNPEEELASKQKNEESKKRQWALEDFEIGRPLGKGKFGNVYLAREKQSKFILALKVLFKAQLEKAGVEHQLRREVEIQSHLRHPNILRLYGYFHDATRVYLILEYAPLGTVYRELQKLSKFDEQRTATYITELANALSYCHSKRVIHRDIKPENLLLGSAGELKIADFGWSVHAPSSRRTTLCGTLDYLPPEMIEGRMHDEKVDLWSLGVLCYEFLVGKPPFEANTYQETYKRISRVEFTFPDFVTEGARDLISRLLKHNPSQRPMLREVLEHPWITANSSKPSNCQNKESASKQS
Protocol: as §1

NUAK1 = target: T3, NUAK1 (Homo sapiens, UniProt O60285); assay: Counter-screen against NUAK1
T3 sequence (O60285 1-661): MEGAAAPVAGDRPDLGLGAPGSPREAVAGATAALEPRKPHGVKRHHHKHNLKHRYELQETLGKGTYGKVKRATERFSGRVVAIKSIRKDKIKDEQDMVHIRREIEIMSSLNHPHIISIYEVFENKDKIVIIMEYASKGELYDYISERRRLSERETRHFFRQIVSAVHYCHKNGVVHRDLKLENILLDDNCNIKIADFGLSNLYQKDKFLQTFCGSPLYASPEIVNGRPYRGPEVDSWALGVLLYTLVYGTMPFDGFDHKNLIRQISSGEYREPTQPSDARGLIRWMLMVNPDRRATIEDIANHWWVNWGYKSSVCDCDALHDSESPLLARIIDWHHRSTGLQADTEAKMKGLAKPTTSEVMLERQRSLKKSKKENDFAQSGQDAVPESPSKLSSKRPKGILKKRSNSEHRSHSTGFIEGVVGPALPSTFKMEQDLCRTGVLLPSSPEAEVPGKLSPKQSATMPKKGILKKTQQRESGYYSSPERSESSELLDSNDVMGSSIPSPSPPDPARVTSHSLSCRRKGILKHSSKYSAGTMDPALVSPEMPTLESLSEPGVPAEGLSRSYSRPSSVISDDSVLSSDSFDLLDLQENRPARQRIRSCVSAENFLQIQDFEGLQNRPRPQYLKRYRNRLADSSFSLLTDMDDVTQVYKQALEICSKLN
Protocol: as §1

Row | Structure (SMILES) | IC50 (NUAK2 (h)) [nM] | IC50 (Aurora A) [nM] | IC50 (NUAK1) [nM]
1 | CCN1CCN(c2ccc(Nc3nccc(Nc4cccc5c4C(=O)NC5)n3)cc2F)CC1 [Compound I-2, 7-((2-((4-(4-ethylpiperazin-1-yl)-3-fluorophenyl)amino)pyrimidin-4-yl)amino)isoindolin-1-one] | 11 to 100 | 0.1 to 10 | 0.1 to 10
2 | COc1cc2c(cc1Nc1ncc(Cl)c(Nc3cccc4c3C(=O)NC4)n1)CN(C)CC2 [Compound I-3, 7-((5-chloro-2-((6-methoxy-2-methyl-1,2,3,4-tetrahydroisoquinolin-7-yl)amino)pyrimidin-4-yl)amino)isoindolin-1-one] | 11 to 100 | 101 to 1000 | 101 to 1000
3 | COc1c(Nc2ncc(Cl)c(Nc3cccc4c3C(=O)NC4)n2)ccc(N2CCN3CCCC3C2)c1F (stereo not shown) [Compound I-6, 7-((5-chloro-2-((3-fluoro-4-(hexahydropyrrolo[1,2-a]pyrazin-2(1H)-yl)-2-methoxyphenyl)amino)pyrimidin-4-yl)amino)isoindolin-1-one] | 11 to 100 | 101 to 1000 | 11 to 100
4 | COc1c(Nc2ncc(Cl)c(Nc3cccc4c3C(=O)NC4)n2)ccc(N2CCC(N3CCN(C)CC3)CC2)c1F [Compound I-7, 7-((5-chloro-2-((3-fluoro-2-methoxy-4-(4-(4-methylpiperazin-1-yl)piperidin-1-yl)phenyl)amino)pyrimidin-4-yl)amino)isoindolin-1-one] | 11 to 100 | 101 to 1000 | 11 to 100
5 | CN1CCN(c2ccc(Nc3ncc(Cl)c(Nc4cccc5c4C(=O)NC5)n3)c(C(F)(F)F)c2)CC1 [Compound I-8, 7-((5-chloro-2-((4-(4-methylpiperazin-1-yl)-2-(trifluoromethyl)phenyl)amino)pyrimidin-4-yl)amino)isoindolin-1-one] | 11 to 100 | 101 to 1000 | 101 to 1000
6 | COc1cc(CN(C)C)ccc1Nc1ncc(Cl)c(Nc2ccc(F)c3c2C(=O)NC3)n1 [Compound I-85, 7-((5-chloro-2-((4-((dimethylamino)methyl)-2-methoxyphenyl)amino)pyrimidin-4-yl)amino)-4-fluoroisoindolin-1-one] | 11 to 100 | > 1000 | 

Stronger by IC50 (NUAK2 (h)), values ahead:

Row | IC50 (NUAK2 (h)) [nM] | IC50 (Aurora A) [nM] | IC50 (NUAK1) [nM] | Structure (SMILES)
7 | 0.1 to 10 | 101 to 1000 | 11 to 100 | CN1CCN(c2ccc(Nc3ncc(Cl)c(Nc4cccc5c4C(=O)NC5)n3)c(OC(F)F)c2)CC1 [Compound I-1, 7-((5-chloro-2-((2-(difluoromethoxy)-4-(4-methylpiperazin-1-yl)phenyl)amino)pyrimidin-4-yl)amino)isoindolin-1-one]
8 | 0.1 to 10 | 0.1 to 10 | 11 to 100 | CCN1CCN(c2ccc(Nc3ncc(Cl)c(Nc4cccc5c4C(=O)NC5)n3)cc2F)CC1 [Compound I-4, 7-((5-chloro-2-((4-(4-ethylpiperazin-1-yl)-3-fluorophenyl)amino)pyrimidin-4-yl)amino)isoindolin-1-one]
9 | 0.1 to 10 | 11 to 100 | 11 to 100 | COc1cc(N2CCN(C)CC2)ccc1Nc1ncc(Cl)c(Nc2cccc3c2C(=O)NC3)n1 [Compound I-5, 7-((5-chloro-2-((2-methoxy-4-(4-methylpiperazin-1-yl)phenyl)amino)pyrimidin-4-yl)amino)isoindolin-1-one]
10 | 0.1 to 10 | 101 to 1000 | 11 to 100 | CN1CCN(C2CCN(c3ccc(Nc4ncc(Cl)c(Nc5cccc6c5C(=O)NC6)n4)c(OC(F)F)c3)CC2)CC1 [Compound I-9, 7-((5-chloro-2-((2-(difluoromethoxy)-4-(4-(4-methylpiperazin-1-yl)piperidin-1-yl)phenyl)amino)pyrimidin-4-yl)amino)isoindolin-1-one]
11 | 0.1 to 10 | > 1000 |  | CN1CCN(c2ccc(Nc3ncc(Cl)c(Nc4ccc(F)c5c4C(=O)NC5)n3)c(OC(F)F)c2)CC1 [Compound I-84, 7-((5-chloro-2-((2-(difluoromethoxy)-4-(4-methylpiperazin-1-yl)phenyl)amino)pyrimidin-4-yl)amino)-4-fluoroisoindolin-1-one]
